Experimental data published in ChEMBL document CHEMBL1201862, “PubChem BioAssay data set” (2004).
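Compound exposure: 48 hours, 5 concentrations, 96-well plates. Here, GI50 denotes the concentration required for 50% inhibition of growth.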 Calls of active or inactive are those of the source. Cut-off read from the data, not from the text of the source: active = GI50 up to about 1.1 µM and inactive = higher. Numbered stars: 1 amine (or outer) side, 2 acyl side, 3 side chain; on linkers, the order of the positions; unused ones are H or OH. Bridge positions count the residues as written; N and C are the ends. Square brackets hold non-standard residues; d marks the D form. Peptide text beside a SMILES is read from it. * marks the point of attachment. ξ: configuration not given here. X33 = O=C(C(CCCCNO[*:3])N[*:1])[*:2]; Fmoc = O=C(OCC1c2ccccc2-c2ccccc21)*; ξW = NC(Cc1c[nH]c2ccccc12)C(=O)O; ξP = O=C(O)C1CCCN1

Tests used:
Assay in all cases: DTP human tumour cell line panel, 48 h
A498 = tested on: A498
BT-549 = tested on: BT-549
CCRF-CEM = tested on: CCRF-CEM
DU-145 = tested on: DU-145
HOP-92 = tested on: HOP-92
Hs-578T = tested on: Hs-578T
Malme-3M = tested on: Malme-3M
NCI-H460 = tested on: NCI-H460
NCI/ADR-RES = tested on: NCI/ADR-RES
OVCAR-4 = tested on: OVCAR-4
OVCAR-5 = tested on: OVCAR-5
SF-295 = tested on: SF-295
SK-MEL-2 = tested on: SK-MEL-2
SNB-75 = tested on: SNB-75
T47D = tested on: T47D
TK-10 = tested on: TK-10
UACC-62 = tested on: UACC-62
CAKI-1 = tested on: CAKI-1
HCC 2998 = tested on: HCC 2998
NCI-H226 = tested on: NCI-H226

Row | SMILES | GI50 (A498) | GI50 (BT-549) | GI50 (CCRF-CEM) | GI50 (DU-145) | GI50 (HOP-92) | GI50 (Hs-578T) | GI50 (Malme-3M) | GI50 (NCI-H460) | GI50 (NCI/ADR-RES) | GI50 (OVCAR-4) | GI50 (OVCAR-5) | GI50 (SF-295) | GI50 (SK-MEL-2) | GI50 (SNB-75) | GI50 (T47D) | GI50 (TK-10) | GI50 (UACC-62) | GI50 (CAKI-1) | GI50 (HCC 2998) | GI50 (NCI-H226)
1 | COc1ccc2nc(NCN3C(=O)c4ccccc4C3=O)sc2c1 | > 100 µM (inactive) | > 100 µM (inactive) | > 100 µM (inactive) | > 100 µM (inactive) | > 100 µM (inactive) | > 100 µM (inactive) | > 100 µM (inactive) | > 100 µM (inactive) | > 100 µM (inactive) | > 100 µM (inactive) | > 100 µM (inactive) | > 100 µM (inactive) | > 100 µM (inactive) | > 100 µM (inactive) | > 100 µM (inactive) | > 100 µM (inactive) | > 100 µM (inactive) | – | – | –
2 | O=C(N/N=C/c1ccc([N+](=O)[O-])cc1)Nc1ccc(Br)cc1 | – | > 100 µM (inactive) | 23.4 µM (inactive) | 47.9 µM (inactive) | > 100 µM (inactive) | > 100 µM (inactive) | > 100 µM (inactive) | > 100 µM (inactive) | 49.2 µM (inactive) | 49 µM (inactive) | > 100 µM (inactive) | > 100 µM (inactive) | > 100 µM (inactive) | > 100 µM (inactive) | 36.1 µM (inactive) | > 100 µM (inactive) | 15.3 µM (inactive) | 83.6 µM (inactive) | 26.5 µM (inactive) | > 100 µM (inactive)
3 | O=C1NC(=O)c2ccc([N+](=O)[O-])c3cccc1c23 | 13.2 µM (inactive) | 19.2 µM (inactive) | – | 34 µM (inactive) | 20 µM (inactive) | 25.2 µM (inactive) | – | 11.5 µM (inactive) | – | 20 µM (inactive) | 18.3 µM (inactive) | 17.6 µM (inactive) | 32.3 µM (inactive) | 40.1 µM (inactive) | 18.6 µM (inactive) | 19.6 µM (inactive) | 13.9 µM (inactive) | 23.5 µM (inactive) | 24.7 µM (inactive) | 14.3 µM (inactive)
4 | CCc1n[nH]c(=O)n1CCCCCCCCn1c(CC)n[nH]c1=O | – | > 100 µM (inactive) | > 100 µM (inactive) | – | > 100 µM (inactive) | > 100 µM (inactive) | > 100 µM (inactive) | > 100 µM (inactive) | > 100 µM (inactive) | > 100 µM (inactive) | > 100 µM (inactive) | > 100 µM (inactive) | > 100 µM (inactive) | > 100 µM (inactive) | > 100 µM (inactive) | > 100 µM (inactive) | > 100 µM (inactive) | > 100 µM (inactive) | > 100 µM (inactive) | > 100 µM (inactive)
5 | Cc1ccc(C(=O)/C=C2\Nc3ccccc3N=C2NC23CC4CC(CC(C4)C2)C3)cc1 | – | > 10 µM (inactive) | 1 µM (active) | > 10 µM (inactive) | > 10 µM (inactive) | > 10 µM (inactive) | > 10 µM (inactive) | – | > 10 µM (inactive) | 7.66 µM (inactive) | > 10 µM (inactive) | > 10 µM (inactive) | – | > 10 µM (inactive) | > 10 µM (inactive) | > 10 µM (inactive) | > 10 µM (inactive) | > 10 µM (inactive) | > 10 µM (inactive) | –
6 | Cn1c(C(C#N)c2cc(Cl)ncn2)nc2ccccc21 (stereo not drawn) | > 100 µM (inactive) | > 100 µM (inactive) | – | > 100 µM (inactive) | > 100 µM (inactive) | – | > 100 µM (inactive) | > 100 µM (inactive) | > 100 µM (inactive) | > 100 µM (inactive) | > 100 µM (inactive) | > 100 µM (inactive) | – | > 100 µM (inactive) | > 100 µM (inactive) | > 100 µM (inactive) | – | > 100 µM (inactive) | – | > 100 µM (inactive)
7 | COc1cc2c3c(n(Cc4ccccc4)c(=O)c2cc1OC)-c1ccccc1C3=O | – | > 100 µM (inactive) | 17.9 µM (inactive) | > 100 µM (inactive) | > 100 µM (inactive) | 63.7 µM (inactive) | > 100 µM (inactive) | 26.7 µM (inactive) | > 100 µM (inactive) | > 100 µM (inactive) | > 100 µM (inactive) | > 100 µM (inactive) | > 100 µM (inactive) | 32.3 µM (inactive) | > 100 µM (inactive) | > 100 µM (inactive) | > 100 µM (inactive) | 92.9 µM (inactive) | > 100 µM (inactive) | > 100 µM (inactive)
8 | O=C1Nc2cccc3cc(NCC(O)CCl)cc1c23 (stereo not drawn) | – | 39.9 µM (inactive) | 22.2 µM (inactive) | 97.5 µM (inactive) | 55.5 µM (inactive) | 38 µM (inactive) | 88.1 µM (inactive) | > 100 µM (inactive) | 64.7 µM (inactive) | > 100 µM (inactive) | > 100 µM (inactive) | 73.1 µM (inactive) | 21.5 µM (inactive) | 25.4 µM (inactive) | 88.5 µM (inactive) | 75.5 µM (inactive) | 49.9 µM (inactive) | 35.2 µM (inactive) | 91 µM (inactive) | > 100 µM (inactive)
9 | CCO/C=N/C1=C(C#N)C(c2ccc(OC)c(OC)c2)c2c(-c3ccccc3)nn(-c3ccccc3)c2O1 (stereo not drawn) | – | 8.13 µM (inactive) | 2.23 µM (inactive) | 14.6 µM (inactive) | 13.4 µM (inactive) | 20.5 µM (inactive) | 19 µM (inactive) | > 100 µM (inactive) | 15.6 µM (inactive) | – | 10.7 µM (inactive) | 11.1 µM (inactive) | 18.5 µM (inactive) | 15.5 µM (inactive) | 9.14 µM (inactive) | – | 14.4 µM (inactive) | 17 µM (inactive) | > 100 µM (inactive) | 11.3 µM (inactive)
10 | Cc1cc(C)c2c(n1)S(=O)(=O)N(CCCN1CCN(c3cccc(Cl)c3)CC1)C(C(=O)c1ccccc1)=C2O | 28.8 µM (inactive) | 52.6 µM (inactive) | 25.9 µM (inactive) | 36.7 µM (inactive) | 25.8 µM (inactive) | 65.8 µM (inactive) | 64.3 µM (inactive) | 18.5 µM (inactive) | 20.6 µM (inactive) | 24.7 µM (inactive) | 45 µM (inactive) | 31.8 µM (inactive) | 32.4 µM (inactive) | – | 38.8 µM (inactive) | 27 µM (inactive) | 36.1 µM (inactive) | 12.9 µM (inactive) | – | –
11 | COc1ccc(C2CC3(c4ccccc4)ON=C(c4ccccc4)N3c3ccccc3S2)cc1 (stereo not drawn) | > 100 µM (inactive) | > 100 µM (inactive) | > 100 µM (inactive) | > 100 µM (inactive) | – | > 100 µM (inactive) | > 100 µM (inactive) | > 100 µM (inactive) | > 100 µM (inactive) | > 100 µM (inactive) | > 100 µM (inactive) | > 100 µM (inactive) | – | > 100 µM (inactive) | > 100 µM (inactive) | > 100 µM (inactive) | > 100 µM (inactive) | > 100 µM (inactive) | > 100 µM (inactive) | > 100 µM (inactive)
12 | CN(NC(=O)c1ccco1)C1=NCCCCN1 | – | > 100 µM (inactive) | > 100 µM (inactive) | > 100 µM (inactive) | > 100 µM (inactive) | > 100 µM (inactive) | > 100 µM (inactive) | > 100 µM (inactive) | > 100 µM (inactive) | > 100 µM (inactive) | > 100 µM (inactive) | > 100 µM (inactive) | > 100 µM (inactive) | > 100 µM (inactive) | > 100 µM (inactive) | > 100 µM (inactive) | > 100 µM (inactive) | – | > 100 µM (inactive) | > 100 µM (inactive)
13 | CC(C)C1=CC23CCC4C(C)(C(=O)O)CCCC4(C)C2CC1C1C(=O)N(c2ccc(C(=O)O)cc2)C(=O)C13 (stereo not drawn) | – | > 100 µM (inactive) | – | > 100 µM (inactive) | > 100 µM (inactive) | > 100 µM (inactive) | > 100 µM (inactive) | > 100 µM (inactive) | > 100 µM (inactive) | > 100 µM (inactive) | – | > 100 µM (inactive) | > 100 µM (inactive) | > 100 µM (inactive) | > 100 µM (inactive) | > 100 µM (inactive) | > 100 µM (inactive) | > 100 µM (inactive) | > 100 µM (inactive) | > 100 µM (inactive)
14 | C/C=C1/CN2CCC3(O)c4ccccc4N4C=C(C(=O)OC)C1CC2C43O (stereo not drawn) | – | > 100 µM (inactive) | > 100 µM (inactive) | > 100 µM (inactive) | > 100 µM (inactive) | > 100 µM (inactive) | > 100 µM (inactive) | > 100 µM (inactive) | > 100 µM (inactive) | > 100 µM (inactive) | > 100 µM (inactive) | > 100 µM (inactive) | – | > 100 µM (inactive) | > 100 µM (inactive) | > 100 µM (inactive) | > 100 µM (inactive) | > 100 µM (inactive) | > 100 µM (inactive) | –
15 | NC(=O)CNC(=O)C1CCCN1C(=O)C1CCCCNOC(=O)CC[C@@H](NC(=O)OCC2c3ccccc3-c3ccccc32)C(=O)NC(Cc2c[nH]c3ccccc23)C(=O)N1 (stereo partly drawn) (Fmoc-[dE][ξW][X33][ξP]G-NH2; ester 1-3) | – | > 100 µM (inactive) | > 100 µM (inactive) | > 100 µM (inactive) | > 100 µM (inactive) | > 100 µM (inactive) | > 100 µM (inactive) | > 100 µM (inactive) | > 100 µM (inactive) | > 100 µM (inactive) | 63.5 µM (inactive) | > 100 µM (inactive) | > 100 µM (inactive) | > 100 µM (inactive) | > 100 µM (inactive) | > 100 µM (inactive) | > 100 µM (inactive) | > 100 µM (inactive) | > 100 µM (inactive) | > 100 µM (inactive)
